This note sets out measurements from patent US9931407B2, “Silicon based drug conjugates and methods of using same” (BlinkBio, Inc., priority 2015, dated 2018).

The nature of one data set: physchem. The note with it: buffer.
Data set [1] can be described thus: Hydrolysis studies of silicon-linker constructs and conjugates (HEPES buffer, UPLC/MS). The following applies: pH 7.4.

The structures appear in SMILES notation.

Usually half-life stands for the time in which the quantity being followed falls by half.

Turning to `CC(=O)NCCC[Si](C)(C)O[Si](C)(C)CSc1ncc(Cn2cc(-c3ccc(COCC(COCc4ccc(-c5cn(Cc6cnc(SC[Si](C)(C)O[Si](C)(C)CCCNC(C)=O)nc6)nn5)cc4)(COCc4ccc(-c5cn(Cc6cnc(SC[Si](C)(C)O[Si](C)(C)CCCNC(C)=O)nc6)nn5)cc4)NC(=O)OC(C)(C)C)cc3)nn2)cn1` [Example 73, tert-butyl(1,3-bis((4-(1-((2-(((3-(3-acetamidopropyl)-1,1,3,3-tetramethyldisiloxanyl)methyl)thio)pyrimidin-5-yl)methyl)-1H-1,2,3-triazol-4-yl)benzyl)oxy)-2-(((4-(1-((2-(((3-(3-acetamidopropyl)-1,1,3,3-tetramethyldisiloxanyl)methyl)thio)pyrimidin-5-yl)methyl)-1H-1,2,3-triazol-4-yl)benzyl)oxy)methyl)propan-2-yl)carbamate], the half-life is 18 h in the data set “physchem” (pH 5) and above 18 h in the data set “physchem” (pH 7.4).

For the compound `C[Si](C)(C)O[Si](C)(C)CSc1cnccn1` [Example 31, 2-(((1,1,3,3,3-pentamethyldisiloxanyl)methyl)thio)pyrazine], the half-life in “physchem” (pH 5) was 0.5 h.

Take `C[Si](C)(C)O[Si](C)(C)CS(=O)(=O)c1ncccn1` [Example 10, 2-(((1,1,3,3,3-Pentamethyldisiloxanyl)methyl)sulfonyl)pyrimidine]: the half-life in “physchem” (pH 5) and in the data set “physchem” (pH 7.4) was 0.583 h in each case. `Cc1cc(C)nc(SC[Si](C)(C)O[Si](C)(C)C)n1` [Example 9, 4,6-Dimethyl-2-(((1,1,3,3,3-pentamethyldisiloxanyl)methyl)thio)pyrimidine]: the figures for the half-life in the data set “physchem” (pH 5) and in the data set “physchem” (pH 7.4) were 0.417 h and 40 h, respectively. Consider `CC(C)C(=O)NCCC[Si](C)(C)O[Si](C)(C)CSc1ncccn1` [Example 34, N-(3-(1,1,3,3-Tetramethyl-3-((pyrimidin-2-ylthio)methyl)disiloxanyl)propyl) isobutyramide], for which the half-life in the data set “physchem” (pH 5) was 0.0333 h; in “physchem” (pH 7.4) it was above 2 h. As for `CC(=O)NCCC[Si](C)(C)O[Si](C)(C)CCCn1cc(-c2ccccc2)nn1` [Example 69, N-(3-(1,1,3,3-tetramethyl-3-(3-(4-phenyl-1H-1,2,3-triazol-1-yl)propyl)disiloxanyl)propyl)acetamide], the half-life was 4 h in the data set “physchem” (pH 5) and above 6 h in the data set “physchem” (pH 7.4). For the compound `C[Si](C)(COc1ncccn1)O[Si](C)(C)COc1ncccn1` [Example 15, 1,1,3,3-Tetramethyl-1,3-bis((pyrimidin-2-yloxy)methyl)disiloxane], the half-life was 0.417 h in “physchem” (pH 5) and above 4 h in the data set “physchem” (pH 7.4).

`CC(=O)NCCC[Si](C)(C)O[Si](C)(C)CSc1ncc(COCCOCCOCCn2cc(COCC(COCc3cn(CCOCCOCCOCc4cnc(SC[Si](C)(C)O[Si](C)(C)CCCNC(C)=O)nc4)nn3)(COCc3cn(CCOCCOCCOCc4cnc(SC[Si](C)(C)O[Si](C)(C)CCCNC(C)=O)nc4)nn3)NC(C)=O)nn2)cn1` [Example 63]: the half-life was 1 h in “physchem” (pH 5) and above 18 h in “physchem” (pH 7.4). `C[Si](C)(C)O[Si](C)(C)CSc1nccc(C(F)(F)F)n1` [Example 28, 2-(((1,1,3,3,3-pentamethyldisiloxanyl)methyl)thio)-4-(trifluoromethyl)pyrimidine] came in with a half-life in the data set “physchem” (pH 5) above 2 h.

Regarding `C[Si](C)(CCCC(=O)O)O[Si](C)(C)c1ccccc1` [Example 1, 4-(1,1,3,3-Tetramethyl-3-phenyldisiloxanyl)butanoic acid], the half-life in the data set “physchem” (pH 5) was 1.67 h; in the data set “physchem” (pH 7.4), above 24 h. As to `Cc1ccnc(SC[Si](C)(C)O[Si](C)(C)C)n1` [Example 27, 4-Methyl-2-(((1,1,3,3,3-pentamethyldisiloxanyl)methyl)thio)pyrimidine], the half-life was 0.2 h in the data set “physchem” (pH 5) and above 2 h in “physchem” (pH 7.4). In the case of `CC(=O)NCCC[Si](C)(C)O[Si](C)(C)CSc1ncc(Cn2cc(-c3ccccc3)nn2)cn1` [Example 62, N-(3-(1,1,3,3-tetramethyl-3-(((5-((4-phenyl-1H-1,2,3-triazol-1-yl)methyl)pyrimidin-2-yl)thio)methyl)disiloxanyl)propyl)acetamide], the half-life in the data set “physchem” (pH 5) is 0.333 h; in “physchem” (pH 7.4), above 3 h. As to `CC[C@]1(O)C[C@H]2CN(CCc3c([nH]c4ccccc34)[C@@](C(=O)OC)(c3cc4c(cc3OC)N(C)[C@H]3[C@@](O)(C(=O)NCCC[Si](C)(C)O[Si](C)(C)CSc5ncc(Cn6cc(COCC(COCc7cn(Cc8cnc(SC[Si](C)(C)O[Si](C)(C)CCCNC(=O)[C@@]9(O)[C@H](O)[C@]%10(CC)C=CCN%11CC[C@@]%12(c%13cc([C@@]%14(C(=O)OC)C[C@@H]%15CN(CCc%16c%14[nH]c%14ccccc%16%14)C[C@](O)(CC)C%15)c(OC)cc%13N(C)[C@@H]9%12)[C@@H]%11%10)nc8)nn7)(COCc7cn(Cc8cnc(SC[Si](C)(C)O[Si](C)(C)CCCNC(=O)[C@@]9(O)[C@H](O)[C@]%10(CC)C=CCN%11CC[C@@]%12(c%13cc([C@@]%14(C(=O)OC)C[C@@H]%15CN(CCc%16c%14[nH]c%14ccccc%16%14)C[C@](O)(CC)C%15)c(OC)cc%13N(C)[C@@H]9%12)[C@@H]%11%10)nc8)nn7)NC(=O)CCOCCOCCOCCOCCOCCOCCNC(=O)CC[C@H](NC(=O)c7ccc(NCc8cnc9nc(N)[nH]c(=O)c9n8)cc7)C(=O)O)nn6)cn5)[C@H](O)[C@]5(CC)C=CCN6CC[C@]43[C@@H]65)C2)C1` (stereo partly drawn) [Example 83], the half-life in data set [1] was above 24 h. With `C[Si](C)(C)O[Si](C)(C)CSc1ncccn1` [Example 8, 2-(((1,1,3,3,3-Pentamethyldisiloxanyl)methyl)thio)pyrimidine], the half-life in “physchem” (pH 5) amounted to 0.0833 h; in the data set “physchem” (pH 7.4) it was 24 h. As for `CCOC(=O)CCC[Si](C)(C)O[Si](C)(C)CCCC(=O)O` [Example 7, 4-(3-(4-ethoxy-4-oxobutyl)-1,1,3,3-tetramethyldisiloxanyl)butanoic acid], the figures for the half-life in the data set “physchem” (pH 5) and in “physchem” (pH 7.4) were 0.333 h and above 24 h, respectively.
